Measurements: the CheMixHub ionic liquid set

Test: xn = mol fraction of the nth substance listed

CCCCCCCC(=O)[O-].c1c[nH+]c[nH]1 + CCCCCCCCO
101.3 kPa
Settings | viscosity [mPa·s]
293.15 K, x2 = 0.4 | 39.42
293.15 K, x2 = 0.6005 | 24
298.15 K, x2 = 0.4 | 33.3
298.15 K, x2 = 0.5007 | 25.9
298.15 K, x2 = 0.6005 | 20.3
298.15 K, x2 = 0.8997 | 9.1
303.15 K, x2 = 0.6005 | 17.2
308.15 K, x2 = 0.1011 | 40.69
308.15 K, x2 = 0.6999 | 11.72
313.15 K, x2 = 0.6005 | 12.3
318.15 K, x2 = 0.1011 | 27.68
318.15 K, x2 = 0.799 | 6.7
318.15 K, x2 = 0.8997 | 5.38
323.15 K, x2 = 0.1011 | 22.9
323.15 K, x2 = 0.2991 | 17.1
323.15 K, x2 = 0.8997 | 4.82

CCCCCCCC[P+](CC)(CC)CC.O=[N+]([O-])c1c[n-]cn1 + COCCOCCOCCOCCOC
viscosity [mPa·s], 100 kPa
Settings | x1 = 0.599 | x1 = 0.699 | x1 = 0.9 | x1 = 1
278.15 K | 125 | 210 | – | 1270
288.15 K | – | 114 | – | 569
298.15 K | – | – | 180 | –

CCCCCC[n+]1ccn(C)c1.[Br-] + C[NH2+]CCC=C1c2ccccc2CCc2ccccc21.[Cl-] + O
viscosity [mPa·s], 100 kPa
Settings | 288.15 K | 298.15 K | 308.15 K | 318.15 K
x2 = 0, x1 = 0.0001802 | 1.159 | 0.926 | 0.762 | 0.645
x2 = 0, x1 = 0.0007203 | 1.165 | 0.934 | 0.77 | 0.643
x2 = 0, x1 = 0.00126 | 1.171 | 0.942 | 0.776 | 0.66

CC[n+]1ccn(C)c1.COS(=O)(=O)[O-] + CN1CCCC1=O
101 kPa
Settings | viscosity [mPa·s]
298.15 K, x2 = 0.8502 | 4.99
303.15 K, x2 = 0.3825 | 28
303.15 K, x2 = 0.5291 | 17.6
303.15 K, x2 = 0.9298 | 2.91
308.15 K, x1 = 0.0115 | 1.52
308.15 K, x2 = 0.6518 | 9.5
308.15 K, x2 = 0.718 | 6.8
313.15 K, x2 = 0.0861 | 38.1

CCCCCC[n+]1ccn(C)c1.O=S(=O)([N-]S(=O)(=O)C(F)(F)F)C(F)(F)F + CC(C)=O
298.15 K, 100 kPa
Settings | electrical conductivity [S/m]
x1 = 0.0527 | 2.6
x1 = 0.07996 | 3.1
x1 = 0.1149 | 3.1
x1 = 0.163 | 2.4
x1 = 0.2325 | 2

CCC[N+]1(C)CCCC1.N#C[N-]C#N + CCC[N+]1(C)CCCC1.O=S(=O)([N-]S(=O)(=O)C(F)(F)F)C(F)(F)F
333.15 K, 101 kPa
Settings | electrical conductivity [S/m] | viscosity [mPa·s]
x1 = 0.25 | 1.38 | 16.8
x1 = 0.75 | 2.72 | 13.2

CC[n+]1ccn(C)c1.COS(=O)(=O)[O-] + CCCO
viscosity [mPa·s], 101 kPa
Settings | 283.15 K | 293.15 K | 303.15 K | 313.15 K | 323.15 K
x1 = 0.0562 | 3.83 | 3 | 2.38 | 1.93 | 1.58
x1 = 0.1123 | 5.02 | 3.88 | 3.06 | 2.47 | 2.02
x1 = 0.2201 | 8.55 | 6.43 | 4.9 | 3.82 | 3.15
x1 = 0.3272 | 12.73 | 9.53 | 7.27 | 5.71 | 4.62
x1 = 0.4282 | 19.32 | 14.17 | 10.7 | 8.3 | 6.6
x1 = 0.5272 | 29.1 | 20.65 | 15.24 | 11.61 | 9.06
x1 = 0.6285 | 40.72 | 27.29 | 19.7 | 14.77 | 11.43
x1 = 0.7255 | 56.5 | 37.58 | 27.45 | 20.14 | 15.3
x1 = 0.8203 | 82.4 | 52.7 | 35.86 | 26.65 | 19.78
x1 = 0.9091 | 104.9 | 63.6 | 42.77 | 30.19 | 22.2
x1 = 0.954 | 127.2 | 77 | 50.3 | 35.02 | 25.63
x1 = 1 | 141 | 84.1 | 57.9 | 39.54 | 28.33

CC[n+]1ccn(C)c1.COS(=O)(=O)[O-] + O
101 kPa
Settings | viscosity [mPa·s]
288.15 K, x2 = 0.0023 | 137.7
288.15 K, x2 = 0.8948 | 4.861
298.15 K, x2 = 0.0023 | 83.9
298.15 K, x2 = 0.0887 | 80.2
308.15 K, x2 = 0.2235 | 42.26
308.15 K, x2 = 0.4163 | 24.36
308.15 K, x2 = 0.8948 | 2.817
318.15 K, x2 = 0.0023 | 37.81
328.15 K, x2 = 0.0023 | 27.34
338.15 K, x2 = 0.4163 | 10.89
338.15 K, x2 = 0.6106 | 5.924

CC[S+](CC)CCOCCOCCOCC[S+](CC)CC.N#C[N-]C#N.N#C[N-]C#N + CC[n+]1ccn(C)c1.N#C[N-]C#N + O=S(=O)([N-]S(=O)(=O)C(F)(F)F)C(F)(F)F.[Li+]
100 kPa, x1 = 0.2479, x2 = 0.6613
Settings | electrical conductivity [S/m]
298 K | 0.454
303 K | 0.548
313 K | 0.811
323 K | 1.09
333 K | 1.4
343 K | 1.78

NCCO + CN1CCCC1=O + CCCC[n+]1ccn(C)c1.O=S(=O)([N-]S(=O)(=O)C(F)(F)F)C(F)(F)F
viscosity [mPa·s], 101 kPa
Settings | 293.15 K | 298.15 K | 303.15 K | 308.15 K | 313.15 K | 318.15 K | 323.15 K | 328.15 K | 333.15 K
x1 = 0.1608, x2 = 0.8154 | 3.357 | 3.042 | 2.776 | 2.553 | 2.364 | 2.204 | 2.068 | 1.95 | 1.848
x1 = 0.2089, x2 = 0.7256 | 4.749 | 4.206 | 3.761 | 3.388 | 3.089 | 2.818 | 2.599 | 2.41 | 2.252
x1 = 0.2436, x2 = 0.6371 | 6.416 | 5.617 | 4.959 | 4.413 | 3.958 | 3.575 | 3.254 | 2.982 | 2.752

CCCCCCCC(=O)[O-].c1c[nH+]c[nH]1 + CC#N
101.3 kPa
Settings | viscosity [mPa·s]
293.15 K, x2 = 0.298 | 37.82
293.15 K, x2 = 0.499 | 17.94
293.15 K, x2 = 0.5995 | 10.6
293.15 K, x2 = 0.8996 | 1.201
303.15 K, x2 = 0 | 56.48
303.15 K, x2 = 0.1044 | 45.4
303.15 K, x2 = 0.5995 | 9.6
308.15 K, x2 = 0.499 | 12.8
318.15 K, x2 = 0.298 | 18.21
318.15 K, x2 = 0.4005 | 14.1
323.15 K, x2 = 0.499 | 10.2
323.15 K, x2 = 0.5995 | 7.6

CCCCCC[n+]1ccn(C)c1.O=S(=O)([N-]S(=O)(=O)C(F)(F)F)C(F)(F)F + O
Settings | electrical conductivity [S/m]
295.15 K, 101 kPa, x2 = 0.233 | 0.29
